Measured values taken from patent publication US11174267B2, “Spiroindolinones and therapeutic uses thereof” (The Regents of the University of California, priority 2015, dated 2021).
Like-named read-outs stand apart in the source and are kept apart here.

Legend:
[1] = system: C. albicans; assay: Drug susceptibility assay in combination with azole antifungals and other Cdr1/Mdr1 substrates; assay type: cell-based, Candida albicans; details: for EC50 / MIC50: Candida albicans
Method: Drug susceptibility assay. All the assays were carried out with SC medium in 24-well plates. […] Plates were incubated at 30° C. for 15 h. Cell growth was measured by reading absorbance at 600 nm. […] EC50 values were calculated by nonlinear regression curve fit of log (concentration) versus the % cell growth.
Compound 1 was also studied to determine if it can synergize with all azole antifungals and non-azole drugs that are known Cdr1 substrates. […] The effective concentrations of the spiroindolinone used are at nM levels, much lower than that of substrates (azoles for example), therefore ruling out competitive inhibition as the mechanism. […] With further study it is possible to determine drug-target interaction sites on Cdr1.

[2] = system: susceptible strain (HLY4123) of C. albicans; assay: Dose-response with fluconazole (0.25 μg/mL) against susceptible strain; assay type: cell-based, Candida albicans; details: Candida albicans, with fluconazole 0.25 μg/mL; strain HLY4123
Method: (§1) C. albicans was grown in SC medium overnight and then diluted to an effective OD600 of 0.0625. Serial ten-fold dilutions of the test compounds (0.15-1500 μM) were prepared in DMSO in 1.5 mL Eppendorf tubes. […] The plates were incubated in a rotary shaker/incubator at 30° C. for 16 h. The contents of each well was resuspended with a micropipettor and a 20 μL aliquot was added to a polystyrene cuvette and diluted with 680 μL of deionized water. The suspension was triturated again immediately before measuring the absorbance at 600 nm (OD600) for cell densities. EC50 values were determined by fitting to the Hill equation using the Excel-based tool ED50PLUS v1.0 (Mario H. Vargas) or using Mathematica. Similar procedures were used for Candida glabrata and Cryptococcus neoformans.

[3] = system: Resistant Candida albicans (clinical isolate-45); assay: EC50 in combination with fluconazole, resistant C. albicans; assay type: cell-based
[4] = system: Candida glabrata; assay: EC50 in combination with fluconazole, Candida glabrata; assay type: cell-based; details: [fluconazole] = 128 μg/mL
Source text: (§2) Strains and growth condition. The wild-type Candida albicans strains used were SC5314 and CaSS1. Cdr1 heterozygous were from Merck Sharp & Dohme Corp. Double Barcoded (DBC) library of heterozygous Candida albicans mutants (version 2013A). Cdr1 deficient mutant was obtained by counterselection of the GRACE library strain on 5-Fluoroorotic Acid (5-FOA) containing plate. Clinical isolated resistant C. albicans were from Dr. David Rogers. Cryptococcus neoformans var. grubii H99 (ATCC 208821) and Candida glabrata BG2, a fluconazole-resistant clinical isolate, were used. Yeast strains were cultured at 30° C. in synthetic complete (SC) medium containing 2% glucose.
as §1
(§3) Because fungal drug-efflux ABC transporters are conserved, Cdr1 inhibitors that target the conserved regions of the pumps are expected to inhibit the drug efflux pumps in all fungi including C. albicans. […] Therefore, those spiroindolinones are candidates for combination antifungal therapy with azoles against invasive infections of not only C. albicans, but also other pathogenic fungi.

[5] = system: Cryptococcus neoformans; assay: EC50 in combination with fluconazole, Cryptococcus neoformans; assay type: cell-based; details: [fluconazole] = 4 μg/mL
Source text: as §2, §1, §3

[6] = system: NIH 3T3 cells; assay: Cytotoxicity, LDH assay; assay type: cell-based; details: concentrations up to 1.5 mM
Method: The cytotoxicity of spiroindoline Compounds 1, 8 and 25 were tested against NIH 3T3 cells at concentrations up to 1.5 mM (FIG. 13) using an LDH assay.

[7] = molecular target: T1, Cdr1 (Candida albicans, UniProt Q5ANA3); assay: Efflux of Rhodamine 6G (Cdr1 efflux assay); assay type: cell-based; details: C. albicans SC5314; R6G 10 μM; Compound 1 0.3, 3 and 30 μM
T1 construct: endogenous in cells; host or cells: Candida albicans SC5314 (wild type)
T1 sequence (Q5ANA3 whole entry): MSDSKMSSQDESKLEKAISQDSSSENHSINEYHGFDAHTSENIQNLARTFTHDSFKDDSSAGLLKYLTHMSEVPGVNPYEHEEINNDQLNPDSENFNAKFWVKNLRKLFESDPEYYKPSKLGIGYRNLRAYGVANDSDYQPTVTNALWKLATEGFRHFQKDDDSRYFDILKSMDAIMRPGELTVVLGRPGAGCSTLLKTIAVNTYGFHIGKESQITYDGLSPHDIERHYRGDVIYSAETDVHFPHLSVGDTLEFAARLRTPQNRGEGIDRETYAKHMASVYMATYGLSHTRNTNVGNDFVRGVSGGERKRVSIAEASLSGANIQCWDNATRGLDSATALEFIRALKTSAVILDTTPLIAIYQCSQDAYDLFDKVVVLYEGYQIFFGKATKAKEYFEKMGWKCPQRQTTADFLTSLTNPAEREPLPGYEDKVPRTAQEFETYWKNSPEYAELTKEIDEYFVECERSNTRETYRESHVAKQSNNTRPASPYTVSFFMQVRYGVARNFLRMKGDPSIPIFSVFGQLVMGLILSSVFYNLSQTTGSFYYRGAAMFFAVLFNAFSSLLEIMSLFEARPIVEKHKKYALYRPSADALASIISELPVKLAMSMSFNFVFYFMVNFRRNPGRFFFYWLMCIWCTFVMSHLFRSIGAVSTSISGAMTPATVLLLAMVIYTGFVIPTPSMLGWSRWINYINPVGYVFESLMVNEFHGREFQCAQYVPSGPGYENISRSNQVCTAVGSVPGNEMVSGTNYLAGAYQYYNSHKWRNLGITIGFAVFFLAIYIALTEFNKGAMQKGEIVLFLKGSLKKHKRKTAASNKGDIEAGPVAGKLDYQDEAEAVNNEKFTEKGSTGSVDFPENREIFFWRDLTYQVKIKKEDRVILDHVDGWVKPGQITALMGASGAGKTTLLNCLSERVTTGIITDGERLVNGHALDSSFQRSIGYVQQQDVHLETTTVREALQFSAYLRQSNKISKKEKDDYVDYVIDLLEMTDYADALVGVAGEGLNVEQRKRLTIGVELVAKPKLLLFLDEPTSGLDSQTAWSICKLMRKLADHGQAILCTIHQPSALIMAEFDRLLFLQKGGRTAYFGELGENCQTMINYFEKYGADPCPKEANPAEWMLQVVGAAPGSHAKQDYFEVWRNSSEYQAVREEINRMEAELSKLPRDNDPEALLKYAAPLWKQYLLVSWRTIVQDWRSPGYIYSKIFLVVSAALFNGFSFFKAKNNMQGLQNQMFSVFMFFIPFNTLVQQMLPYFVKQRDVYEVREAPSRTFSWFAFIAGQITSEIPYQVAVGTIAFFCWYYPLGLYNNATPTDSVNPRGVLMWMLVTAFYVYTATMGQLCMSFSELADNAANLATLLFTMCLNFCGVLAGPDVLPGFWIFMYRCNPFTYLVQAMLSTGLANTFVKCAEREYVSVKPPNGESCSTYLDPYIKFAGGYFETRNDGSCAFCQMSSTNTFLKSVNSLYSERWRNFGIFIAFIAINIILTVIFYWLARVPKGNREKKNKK
Method: Efflux of Rhodamine 6 G. Efflux of R6G was measured generally base on a method described previously by Shukla (cited below). Briefly, C. albicans SC5314 grown overnight at 30° C. in SC medium were transferred to fresh SC medium with a 1:50 dilution and grown at 30° C. with constant shaking for about 5 h. Cells were then pelleted, washed twice with phosphate-buffered saline (PBS), and resuspended in PBS as about 3 OD600 nm. The cells were then deenergized for 45 min in […] 2-deoxy-D-glucose. The cells were pelleted, washed and resuspended in PBS as 3 OD600 nm, to which compounds (30 μM or noted) and R6G (10 μM) were added successively and incubated at 30° C. for 40 min. Cells were collected, washed and resuspended in PBS with or without compounds and incubated at 30° C. Two percent glucose was added at time point 20 min to initiate the energy-dependent efflux. Samples were taken out every 10 min and the absorption of the supernatant was detected at 527 nm.
To further determine if the spiroindolinone functions by inhibiting Cdr1, the activity of efflux pumps was determined by monitoring the efflux of R6G, a fluorescent compound that is used for Cdr1 efflux assay in C. albicans. […] Extracellular R6G concentrations were quantified by measuring the absorbance of the supernatant at 527 nm. […]

[8] = system: resistant clinical isolates of C. albicans; assay: EC50 against selected resistant clinical isolates with fluconazole; assay type: cell-based; details: Candida albicans, fluconazole 64 μg/mL
Method: as §1
(Flowers, S. A., et al. Eukaryotic Cell 2012, 11, 1289-1299.) The strains grow at dramatically different rates.

[9] = MDR1, with clotrimazole 0.221 μg/mL
[10] = MDR1, with fluconazole 0.500 μg/mL
[11] = MDR1, with itraconazole 0.004 μg/mL
[12] = MDR1, with ketoconazole 0.289 μg/mL
[13] = MDR1, with miconazole 0.031 μg/mL
[14] = MDR1, with vorizonazole 0.006 μg/mL

| Structure (SMILES) | EC50 [1, 9] | EC50 [1, 10] | EC50 [1, 11] | EC50 [1, 12] | EC50 [1, 13] | EC50 [1, 14] | MIC50 ([1]; with clotrimazole 0.221 μg/mL) | MIC50 ([1]; with fluconazole 0.500 μg/mL) | MIC50 ([1]; with itraconazole 0.004 μg/mL) | MIC50 ([1]; with ketoconazole 0.289 μg/mL) | MIC50 ([1]; with miconazole 0.031 μg/mL) | MIC50 ([1]; with vorizonazole 0.006 μg/mL) | EC50 [2] | EC50 [4] | EC50 [5] | other results |
| --- | --- | --- | --- | --- | --- | --- | --- | --- | --- | --- | --- | --- | --- | --- | --- | --- |
| Cc1c(Cl)ccc2c1NC(=O)[C@]21N[C@H](Cc2ccccc2)[C@@H]2C(=O)N(c3ccc(F)cc3)C(=O)[C@@H]21 (racemic) [Compound 1, (±)-(3R,3′R,3a′R,6a'S)-3′-benzyl-6-chloro-5′-(4-fluorophenyl)-7-methyl-2′,3′,3a′,6a′-tetrahydro-4′H-spiro[indoline-3,1′-pyrrolo[3,4-c]pyrrole]-2,4′,6′(5′H)-trione] | 500 nM | 100 nM | 700 nM | 830 nM | 990 nM | 310 nM | 3.7 µM | 1.3 µM | 1.7 µM | 7.4 µM | 3.6 µM | 4.5 µM | 11 nM | 640 nM | > 30000 nM | susceptibility of C. albicans to azole antifungals ([1]; all azole antifungals tested): increase the susceptibility; growth inhibitory activity of cycloheximide ([1]; cycloheximide, substrate of the Cdr1 efflux pump): enhance the growth inhibitory activity; growth inhibitory activity of thiolutin ([1]; thiolutin, substrate of Mdr1): did not enhance the growth inhibitory activity; EC50 ([3]; C. albicans clinical isolate-45; [fluconazole] = 64 μg/mL; read-out: EC50 Resistant Candida albicans): 440 nM; cytotoxicity [6]: weak to negligible cytotoxicity; energy dependent efflux of R6G [7]: almost totally inhibited |
| Cc1c(Cl)ccc2c1NC(=O)[C@@]21[C@H]2C(=O)N(c3ccccc3)C(=O)[C@H]2[C@H]2CN(C(=O)OCc3ccccc3)CCN21 (racemic) [Compound 25, (±)-benzyl (3R,3a′R,3b'S,9a'S)-6-chloro-7-methyl-1′,2,3′-trioxo-2′-phenyl-2′,3′,3a′,3b′,4′,6′,7′,9a′-octahydrospiro[indoline-3,9′-pyrrolo[3′,4′:3,4]pyrrolo[1,2-a]pyrazine]-5′(1′H)-carboxylate] | 150 nM | 11 nM | 190 nM | 14 nM | 240 nM | 62 nM | 4.1 µM | 0.84 µM | 2.5 µM | 2.3 µM | 25 µM | 1.9 µM | 0.3 nM | > 30000 nM | 192 nM | EC50 ([1]; MDR1, with isavuconazole 0.0006 μg/mL): 4 nM; MIC50 ([1]; with isavuconazole 0.0006 μg/mL): 0.11 µM; EC50 ([8]; read-out: Potency Cpd 25 EC50, clinical isolate 17): 5 nM; EC50 ([8]; read-out: Potency Cpd 25 EC50, clinical isolate 23): 53 nM; EC50 ([8]; read-out: Potency Cpd 25 EC50, clinical isolate 26): 2 nM; EC50 ([8]; read-out: Potency Cpd 25 EC50, clinical isolate 33): 11 nM; EC50 ([8]; read-out: Potency Cpd 25 EC50, clinical isolate 36): 5 nM; EC50 ([8]; read-out: Potency Cpd 25 EC50, clinical isolate 45): 16 nM; EC50 ([3]; read-out: EC50 Resistant Candida albicans; C. albicans clinical isolate-45; [fluconazole] = 64 μg/mL): 400 nM |
